Patent US20250351832A1, “PHYTOCHEMICALS AS BIOPESTICIDES AND BIOSTIMULANTS” (KAY BEE BIO ORGANICS PVT. LTD., priority 2024, published 2025)
Read-outs that look alike come from different tables or passages of the source.

Legend:
[1] = system: Pomegranate Bacterial Leaf Blight (BLB-Xanthomonas axonopodis pv Punicae); assay: Field trial, pomegranate bacterial leaf blight (Ex. 99); details: for % Increase in yield over control / Yield: pomegranate
[2] = system: Citrus Canker (Xanthomonas citri pv. Citri); assay: Field trial, citrus canker (Ex. 117); details: for % Increase in yield over control / Yield (t/ha): citrus; for Citrus Canker severity, Pre spray: pre spray (baseline)
[3] = system: Cotton Bacterial Leaf Blight (BLB-Xanthomonas citri pv. Malvacearum); assay: Field trial, cotton bacterial leaf blight, Embodiment 12 (Ex. 116); details: for % Increase over control: cotton yield; for % Disease reduction over Control / Yield: cotton
Aphid [4] = system: Aphid
tomato seedlings = assay: Response of tomato plants, greenhouse growth (Ex. 30); assay type: in vivo
Spodoptera litura [5] = assay: whole plant or invertebrate; details: 72 h
Helicoverpa armigera [6] = details: Helicoverpa armigera on okra fruits, dose 1 ml/gm/lit., 72 Hrs.
Mite [7] = details: mite on okra plants, green house, dose 1 ml/gm/lit. spray
Thrips [8] = system: Thrips
Mealy Bug [9] = details: Mealy Bug on cotton leaves, dose 1 ml/gm/lit., 48 Hrs.
Mite [10] = details: Dose 1 ml/gm/lit.; 48 hrs
Spodoptera litura [11] = details: 72 h, 1 mL or g/L
Thrips [12] = assay: whole plant or invertebrate; details: in Gossypium hirsutum, 48 h
Aphid [13] = assay: whole plant or invertebrate; details: 48 h
Helicoverpa armigera [14] = details: Helicoverpa armigera 3rd instar on chickpea plants, dose 1 ml/gm/lit. spray
Aphid [15] = details: 48 h, 1 mL or g/L
Spodoptera litura [16] = details: Spodoptera litura 3rd instar on cabbage plants, dose 1 ml/gm/lit. spray
Thrips [17] = details: 48 h, 1 mL or g/L
Mealy Bug [18] = details: mealy bug on cotton plants, green house, dose 1 ml/gm/lit. spray
chili seedlings = assay: Response of chili plants, greenhouse growth (Ex. 31); assay type: in vivo
Alternaria alternata = assay: In vitro poisoned food technique against fungus (Ex. 20); assay type: cell-based; details: […]
[19] = Table 13, effect on plants, descriptive; cited from earlier work
[20] = tomato seedlings, 10th day, dose 1 ml/gm/lit
[21] = tomato seedlings, dose 1 ml/gm/lit, 10th day
[22] = 48 hrs, corrected for water control
[23] = read-out: % Corrected Mortality at 48 Hrs.
[24] = read-out: % Mortality at 48 Hrs.
[25] = 72 hrs, corrected for water control
[26] = chili seedlings, dose 1 ml/gm/lit, 10th day

O=[N+]([O-])C(Br)(CO)CO [Bronopol]
% Disease reduction over Control ([1]; dose 500 ppm): 66.68%
BLB severity 1st spray 3rd Day ([1]; dose 500 ppm): 36.68
BLB severity 1st spray 5th day ([1]; dose 500 ppm): 32.15
BLB severity 2nd spray 3rd Day ([1]; dose 500 ppm): 28.75
BLB severity 2nd spray 5th Day ([1]; dose 500 ppm): 26.65
% Increase in yield over control ([1]; dose 500 ppm): 10.36%
Yield ([1]; dose 500 ppm): 10.55 t/ha
% Disease reduction over Control ([2]; dose 500 ppm): 72.62%
Citrus Canker severity, 1st spray 5rd Day ([2]; dose 500 ppm): 38.48
Citrus Canker severity, 1st spray 10th day ([2]; dose 500 ppm): 33.15
Citrus Canker severity, 2nd spray 5rd day ([2]; dose 500 ppm): 27.45
Citrus Canker severity, 2nd spray 10th Day ([2]; dose 500 ppm): 22.45
% Increase in yield over control ([2]; dose 500 ppm): 3.61%
Yield (t/ha) ([2]; dose 500 ppm): 8.30 t/ha
Citrus Canker severity, Pre spray ([2]; dose 500 ppm): 41.75
cotton BLB severity ([3]; 1st spray, 5th Day, dose 500 ppm): 31.33
cotton BLB severity ([3]; 1st spray, 10th Day, dose 500 ppm): 27.10
cotton BLB severity ([3]; 2nd spray, 5th Day, dose 500 ppm): 25.60
cotton BLB severity ([3]; 2nd spray, 10th Day, dose 500 ppm): 23.60
% Increase over control ([3]; dose 500 ppm): 13.79%
% Disease reduction over Control ([3]; dose 500 ppm): 66.38%
Yield ([3]; dose 500 ppm): 20.30 qtl/ha

C=C1C2CCC(C2)C1(C)C (centres unmarked) [Camphene, camphene]
Total No. of dead insect at 48 Hrs. (Aphid [4]; 48 h): 5.25
% Corrected Mortality at 48 Hrs. (Aphid [4]; Dose 1 ml/gm/lit., 48 hrs): 45.71%
% Mortality at 48 Hrs. (Aphid [4]; Dose 1 ml/gm/lit., 48 hrs): 52.50%
CCI Pre (tomato seedlings): 11.85
Plant Height Pre (tomato seedlings): 5.75 cm
Stem Girth Pre (tomato seedlings): 1.29 mm
CCI 5th Day (tomato seedlings; 120 h): 13.99
Plant Height 5th Day (tomato seedlings; 120 h): 6.82 cm
Stem Girth 5th Day (tomato seedlings; 120 h): 1.49 mm
CCI 10th Day (tomato seedlings; 240 h): 14.95
Plant Height 10th Day (tomato seedlings; 240 h): 7.34 cm
Root Length % Increase over control (tomato seedlings; 240 h): 14.19%
Stem Girth 10th Day (tomato seedlings; 240 h): 2.07 mm
Plant Height % Increase over pre on 10th Day (tomato seedlings; [20]): 27.65%
Stem Girth % Increase over pre on 10th Day (tomato seedlings; [20]): 60.47%
CCI % Increase over pre on 10th Day (tomato seedlings; [21]): 26.16%
Root Length (cm) 10th Day (tomato seedlings; [21]): 3.80 cm
mortality at 1 mL or g/L (Spodoptera litura [5]; read-out: % Corrected Mortality at 72 Hrs.): 65.8%
mortality at 1 mL or g/L (Spodoptera litura [5]; read-out: % Mortality at 72 Hrs.): 67.5%
% Mortality at 72 Hrs. (Helicoverpa armigera [6]): 62.50%
% Corrected Mortality at 72 Hrs. (Helicoverpa armigera [6]; corrected for water control): 62.50%
% Mortality at 48 Hrs. (Mite [7]; 48 hrs after application): 40.00%
% Corrected Mortality at 48 Hrs. (Mite [7]; [22]): 36.84%
Total No. of dead insect at 48 Hrs. (Thrips [8]; 48 h): 50.00
% Mortality at 48 Hrs. (Thrips [8]; thrips on cotton plants, greenhouse, dose 1 ml/gm/lit. spray, 48 hrs after application): 50.00%
% Corrected Mortality at 48 Hrs. (Thrips [8]; thrips on cotton plants, greenhouse, dose 1 ml/gm/lit. spray, 48 hrs, corrected for water control): 44.44%
% Mortality at 48 Hrs. (Mealy Bug [9]): 45.00%
% Corrected Mortality at 48 Hrs. (Mealy Bug [9]; corrected for water control): 42.11%
% Corrected Mortality at 48 Hrs. (Mite [10]): 35.14%
% Mortality at 48 Hrs. (Mite [10]): 40.00%
Total No. of dead insect at 72 Hrs. (Spodoptera litura [11]): 6.75
mortality at 1 mL or g/L (Thrips [12]; [23]): 45.7%
mortality at 1 mL or g/L (Thrips [12]; [24]): 52.5%
mortality at 1 mL or g/L (Aphid [13]; [23]): 41.2%
mortality at 1 mL or g/L (Aphid [13]; [24]): 50%
% Mortality at 72 Hrs. (Helicoverpa armigera [14]; 72 hrs after application): 60.00%
% Corrected Mortality at 72 Hrs. (Helicoverpa armigera [14]; [25]): 60.00%
Total No. of dead insect at 48 Hrs. (Aphid [15]): 50.00
% Mortality at 72 Hrs. (Spodoptera litura [16]; 72 hrs after application): 65.00%
% Corrected Mortality at 72 Hrs. (Spodoptera litura [16]; [25]): 63.16%
Total No. of dead insect at 48 Hrs. (Thrips [17]): 5.25
% Mortality at 48 Hrs. (Mealy Bug [18]; 48 hrs after application): 52.50%
% Corrected Mortality at 48 Hrs. (Mealy Bug [18]; [22]): 47.22%
CCI Pre (chili seedlings): 9.35
Plant Height (cm) Pre (chili seedlings): 3.94 cm
CCI 5th Day (chili seedlings; 120 h): 10.40
Plant Height (cm) 5th Day (chili seedlings; 120 h): 5.97 cm
CCI 10th Day (chili seedlings; 240 h): 12.02
Plant Height (cm) 10th Day (chili seedlings; 240 h): 6.21 cm
Root Lenght % Increase over control (chili seedlings; 240 h): 27.80%
CCI % Increase over pre on 10th Day (chili seedlings; [26]): 28.56%
Plant Height % Increase over pre on 10th Day (chili seedlings; [26]): 57.61%
Root Lenght (cm) 10th Day (chili seedlings; [26]): 3.50 cm
Stem Girth % Increase over pre on 10th Day (chili seedlings; [26]): 43.80%
inhibition of growth at 1 mL or g/L (Alternaria alternata): 18.8%
Phytotonic Effect [19]: Trigger the nutrition

[Cl-].[Cu+2].[Cu+2].[OH-].[OH-].[OH-] [Copper oxychloride]
% Disease reduction over Control ([1]; dose 0.25%): 67.92%
BLB severity 1st spray 3rd Day ([1]; dose 0.25%): 36.65
BLB severity 1st spray 5th day ([1]; dose 0.25%): 30.15
BLB severity 2nd spray 3rd Day ([1]; dose 0.25%): 26.14
BLB severity 2nd spray 5th Day ([1]; dose 0.25%): 25.66
% Increase in yield over control ([1]; dose 0.25%): 12.45%
Yield ([1]; dose 0.25%): 10.75 t/ha
cotton BLB severity ([3]; 1st spray, 5th Day, dose 0.25%): 30.00
cotton BLB severity ([3]; 1st spray, 10th Day, dose 0.25%): 28.45
cotton BLB severity ([3]; 2nd spray, 5th Day, dose 0.25%): 23.65
cotton BLB severity ([3]; 2nd spray, 10th Day, dose 0.25%): 21.36
% Increase over control ([3]; dose 0.25%): 5.41%
% Disease reduction over Control ([3]; dose 0.25%): 69.57%
Yield ([3]; dose 0.25%): 18.50 qtl/ha

Copper
% Disease reduction over Control ([2]; dose 0.25%): 71.15%
Citrus Canker severity, 1st spray 5rd Day ([2]; dose 0.25%): 39.56
Citrus Canker severity, 1st spray 10th day ([2]; dose 0.25%): 34.15
Citrus Canker severity, 2nd spray 5rd day ([2]; dose 0.25%): 29.65
Citrus Canker severity, 2nd spray 10th Day ([2]; dose 0.25%): 23.65
% Increase in yield over control ([2]; dose 0.25%): 13.04%
Yield (t/ha) ([2]; dose 0.25%): 9.20 t/ha
Citrus Canker severity, Pre spray ([2]; dose 0.25%): 40.52

[Cu+2].[OH-].[OH-] [Copper Hydroxide]
% Disease reduction over Control ([1]; dose 0.30%): 61.56%
BLB severity 1st spray 3rd Day ([1]; dose 0.30%): 35.45
BLB severity 1st spray 5th day ([1]; dose 0.30%): 33.15
BLB severity 2nd spray 3rd Day ([1]; dose 0.30%): 31.2
BLB severity 2nd spray 5th Day ([1]; dose 0.30%): 30.75
% Increase in yield over control ([1]; dose 0.30%): 16.42%
Yield ([1]; dose 0.30%): 11.13 t/ha
% Disease reduction over Control ([2]; dose 0.30%): 70.60%
Citrus Canker severity, 1st spray 5rd Day ([2]; dose 0.30%): 37.65
Citrus Canker severity, 1st spray 10th day ([2]; dose 0.30%): 33.15
Citrus Canker severity, 2nd spray 5rd day ([2]; dose 0.30%): 28.10
Citrus Canker severity, 2nd spray 10th Day ([2]; dose 0.30%): 24.10
% Increase in yield over control ([2]; dose 0.30%): 13.98%
Yield (t/ha) ([2]; dose 0.30%): 9.30 t/ha
Citrus Canker severity, Pre spray ([2]; dose 0.30%): 41.45
cotton BLB severity ([3]; 1st spray, 5th Day, dose 0.30%): 31.00
cotton BLB severity ([3]; 1st spray, 10th Day, dose 0.30%): 29.75
cotton BLB severity ([3]; 2nd spray, 5th Day, dose 0.30%): 27.45
cotton BLB severity ([3]; 2nd spray, 10th Day, dose 0.30%): 26.45
% Increase over control ([3]; dose 0.30%): 7.89%
% Disease reduction over Control ([3]; dose 0.30%): 62.32%
Yield ([3]; dose 0.30%): 19.00 qtl/ha
